Results on ten molecules are retold here after patent US20260274797A1, “PROPIONIC ACID DERIVATIVE AND USE THEREOF IN MEDICINE” (Xizang Haisco Pharmaceutical Co., Ltd., priority 2022, published 2026).

Structures can show the parent of a compound that is named as a salt.

In one data set the target is T1, integrin α4β1 (Homo sapiens, UniProt P05556+P13612).
T1 construct: Jurkat cells were collected, washed twice using DPBS buffer; endogenous in cells; host or cells: Jurkat cells
Description: Integrin α4β1-mediated cell adhesion assay (Jurkat cells on VCAM). In kind it is cell-based. The following applies: for IC50: Jurkat cells adhering to VCAM-1, α4β1-mediated cell adhesion; for α4β1/α4β7: selectivity ratio, Jurkat (α4β1)/VCAM-1 IC50 over RPMI-8866 (α4β7)/MadCAM-1 IC50. How it is done: VCAM was formulated into a final concentration of […] with a coating buffer, 50 μl of the solution was transferred to a 96-well plate, and the plate was coated with same at 4° C. overnight. The plate was washed with coating buffer three times, then 150 μl of a blocking solution (coating buffer containing 1% BSA) was added, and the plate was blocked at 37° C. for 1 h. Jurkat cells were collected, washed twice using DPBS buffer, and then resuspended to 4×10^6 cells/ml with an action buffer. 50 μl of the cell suspension was transferred to a 96-well plate so that the cell density reached 2×10^5 cells/well. Then 1 μl of the test compound at different concentration or DMSO was added and the plate was incubated at 37° C. for 1 h. The plate was washed with coating buffer to remove non-adherent cells. 50 μl of a substrate (4-nitrophenyl-N-acetyl-β-D-glucosaminide) was added and the plate was incubated at 37° C. for 2 h.
Coating buffer: DMEM+20 mM HEPES+0.4 mM MnCl2
Action buffer: DMEM+20 mM HEPES+0.1% BSA+0.4 mM MnCl2
DMEM: dulbecco's modified eagle medium;
HEPES: 2-[4-(2-hydroxyethyl)piperazin-1-yl]ethanesulfonic acid

The next data set has as its target T2, integrin α4β7 (Homo sapiens, UniProt P13612+P26010).
T2 sequence (P13612 34-1032): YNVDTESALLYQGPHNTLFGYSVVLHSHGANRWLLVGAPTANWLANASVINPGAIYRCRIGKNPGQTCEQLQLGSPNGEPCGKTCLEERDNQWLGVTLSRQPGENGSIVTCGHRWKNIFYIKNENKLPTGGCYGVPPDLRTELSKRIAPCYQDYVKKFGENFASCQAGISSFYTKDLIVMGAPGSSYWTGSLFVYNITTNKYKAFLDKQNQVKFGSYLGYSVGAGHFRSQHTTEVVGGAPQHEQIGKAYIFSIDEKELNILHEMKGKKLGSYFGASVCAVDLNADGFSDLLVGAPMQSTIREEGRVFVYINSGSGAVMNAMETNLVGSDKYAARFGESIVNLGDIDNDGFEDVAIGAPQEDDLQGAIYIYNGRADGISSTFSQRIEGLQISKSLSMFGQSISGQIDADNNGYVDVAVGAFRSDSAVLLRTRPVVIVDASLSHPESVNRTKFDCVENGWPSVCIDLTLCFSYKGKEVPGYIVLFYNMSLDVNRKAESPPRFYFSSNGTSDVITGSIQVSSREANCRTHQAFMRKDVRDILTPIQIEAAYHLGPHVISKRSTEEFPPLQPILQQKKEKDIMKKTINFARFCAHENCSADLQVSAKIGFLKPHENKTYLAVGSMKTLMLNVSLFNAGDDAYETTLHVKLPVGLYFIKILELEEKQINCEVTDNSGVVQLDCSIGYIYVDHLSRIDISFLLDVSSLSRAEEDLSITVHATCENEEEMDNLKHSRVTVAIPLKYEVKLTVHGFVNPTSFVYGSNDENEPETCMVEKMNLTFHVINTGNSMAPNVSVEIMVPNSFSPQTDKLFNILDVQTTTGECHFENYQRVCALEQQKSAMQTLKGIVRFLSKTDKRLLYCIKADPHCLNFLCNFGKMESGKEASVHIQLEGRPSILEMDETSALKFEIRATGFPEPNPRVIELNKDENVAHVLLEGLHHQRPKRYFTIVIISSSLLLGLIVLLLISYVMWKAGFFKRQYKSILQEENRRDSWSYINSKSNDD
T2 sequence (P26010 20-798): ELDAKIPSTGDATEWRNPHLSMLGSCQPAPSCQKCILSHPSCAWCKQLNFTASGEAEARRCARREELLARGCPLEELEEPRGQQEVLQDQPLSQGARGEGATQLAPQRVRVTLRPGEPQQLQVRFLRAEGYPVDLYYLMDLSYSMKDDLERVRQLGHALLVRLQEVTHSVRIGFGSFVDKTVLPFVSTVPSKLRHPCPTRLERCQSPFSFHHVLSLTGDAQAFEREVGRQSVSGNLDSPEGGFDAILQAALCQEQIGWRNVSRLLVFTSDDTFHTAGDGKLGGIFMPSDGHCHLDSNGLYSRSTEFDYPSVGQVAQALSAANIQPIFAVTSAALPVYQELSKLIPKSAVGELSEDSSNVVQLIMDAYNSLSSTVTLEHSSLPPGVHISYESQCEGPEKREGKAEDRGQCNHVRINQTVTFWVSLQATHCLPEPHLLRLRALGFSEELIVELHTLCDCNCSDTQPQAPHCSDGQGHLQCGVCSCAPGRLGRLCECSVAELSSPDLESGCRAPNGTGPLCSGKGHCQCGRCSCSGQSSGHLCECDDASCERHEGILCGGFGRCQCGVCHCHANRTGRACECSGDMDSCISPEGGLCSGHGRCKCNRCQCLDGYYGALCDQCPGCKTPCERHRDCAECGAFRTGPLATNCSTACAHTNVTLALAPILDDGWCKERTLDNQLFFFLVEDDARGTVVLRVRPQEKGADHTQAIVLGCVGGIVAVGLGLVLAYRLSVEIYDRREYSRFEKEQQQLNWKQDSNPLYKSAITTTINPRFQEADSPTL
The data set can be described thus: Integrin α4β7 cell adhesion assay (RPMI8866 cells on MAdCAM-1). In kind it is cell-based. The following applies: RPMI8866 cells adhering to MAdCAM-1; α4β7-mediated cell adhesion; read-out: RPMI-8866 (α4β7)/MadCAM-1 IC50. How it is done:
MAdCAM-1 was formulated with TBS buffer to a final concentration of […], 50 μl of the solution was transferred to a 96-well plate, and the plate was coated with same at 4° C. overnight. The plate was washed with TBS buffer three times, then 150 μl of a blocking solution (TBS buffer containing 1% BSA) was added, and the plate was blocked at 37° C. for 1 h. […] 50 μl of the cell suspension was transferred to a 96-well plate so that the cell density reached 2×10^5 cells/well. Then 1 μl of the compound at different concentrations or DMSO was added and the plate was incubated at 37° C. for 1 h or 2 h. The plate was washed with TBS buffer to remove non-adherent cells. 50 μl of a substrate (4-nitrophenyl-N-acetyl-o-D-glucosaminide) was added and the plate was incubated at 37° C. for 2 h. […] The IC50 value was calculated using GraphPad Prism 6 software.

A short description of data set [1]: Pharmacokinetic test in rats. In kind it is in vivo, SD rats. How it is done:
Experimental animals: Male SD rats, about 220 g, 6-8 weeks old, 6 rats/compound, purchased from Chengdu Ddossy Experimental Animals Co., Ltd.
Experimental design: on the day of the test, 6 SD rats/compound were randomly grouped according to their body weights. The animals were fasted with water available for 12 to 14 h one day before the administration and were fed 4 h after the administration.

Data set [2] is described as follows: Test of stability in liver microsomes (rat). In kind it is in vitro ADME. The following applies: 1 μM test compound, NADPH, 37° C. How it is done: (§1) In this experiment, liver microsomes of three species, including monkey, rat and mouse, were used as in vitro models to evaluate the metabolic stability of the test compound.
(§2) At 37° C., 1 μM of the test compound was co-incubated with microsomal protein and coenzyme NADPH. At given time points of the reaction (5 min, 10 min, 20 min, 30 min, and 60 min), the reaction was terminated by adding ice-cold acetonitrile containing an internal standard. The LC-MS/MS method was used to measure the concentration of the test compound in the sample. T1/2 was calculated using the natural logarithm (ln) of the residual rate of the drug in the incubation system and the incubation time. In addition, the intrinsic clearance in liver microsomes CLint(mic) and the intrinsic clearance in liver CLint(Liver) were further calculated.

The nature of data set [3]: Test of stability in liver microsomes (mouse). In kind it is in vitro ADME. The following applies: 1 μM test compound, NADPH, 37° C. How it is done: as §1, §2
The nature of data set [4]: Test of stability in liver microsomes (monkey). In kind it is in vitro ADME. The conditions noted are these: 1 μM test compound, NADPH, 37° C. As for the experimental part: as §1, §2
Where [5] appears, read: read-out: Hepatic intrinsic clearance CLint(liver).
Where [6] appears, read: read-out: Hepatic microsomal intrinsic clearance CLint (mic).

T1 sequence (P05556 21-798, one chain of several): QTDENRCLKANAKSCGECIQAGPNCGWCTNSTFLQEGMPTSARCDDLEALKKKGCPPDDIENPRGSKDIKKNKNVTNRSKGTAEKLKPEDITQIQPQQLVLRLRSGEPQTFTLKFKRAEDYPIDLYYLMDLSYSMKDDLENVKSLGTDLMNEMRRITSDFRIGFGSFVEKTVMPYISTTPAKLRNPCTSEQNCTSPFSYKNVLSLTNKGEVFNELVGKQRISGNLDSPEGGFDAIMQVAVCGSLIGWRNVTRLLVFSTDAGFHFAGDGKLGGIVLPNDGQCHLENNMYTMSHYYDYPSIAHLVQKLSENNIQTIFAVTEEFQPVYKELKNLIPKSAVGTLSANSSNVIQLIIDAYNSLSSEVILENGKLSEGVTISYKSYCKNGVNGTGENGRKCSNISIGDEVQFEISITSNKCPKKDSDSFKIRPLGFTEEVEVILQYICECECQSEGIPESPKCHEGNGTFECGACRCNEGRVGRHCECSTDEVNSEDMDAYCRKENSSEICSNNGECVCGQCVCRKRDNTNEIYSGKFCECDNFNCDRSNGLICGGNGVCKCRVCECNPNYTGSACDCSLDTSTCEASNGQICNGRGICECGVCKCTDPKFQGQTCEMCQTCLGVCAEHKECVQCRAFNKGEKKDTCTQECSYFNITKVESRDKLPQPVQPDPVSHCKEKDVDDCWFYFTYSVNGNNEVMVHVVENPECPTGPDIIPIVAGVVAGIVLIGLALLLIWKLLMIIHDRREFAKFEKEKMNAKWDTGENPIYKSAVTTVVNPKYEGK

For the molecule `Cc1cc(F)cc(C)c1-c1cc(C(CC(=O)O)NC(=O)C(CC(C)C)n2cc(CCN(C)CC3CC3(F)F)c(C(F)(F)F)cc2=O)cc2c1CCC2` (single isomer, unassigned) [Compound 1-2], on integrin α4β1, the IC50 was over 100 nM.

Regarding `COc1cc(C)c(-c2c(F)c(C(CC(=O)O)NC(=O)C(CC(C)C)n3cc(CCN(C)C)c(C(F)(F)F)cc3=O)c(F)c3c2CCC3)c(C)c1` (single isomer, unassigned) [Trifluoroacetate salt of compound 21-2], the IC50 is under 1 nM at integrin α4β7 and over 500 nM at integrin α4β1.

For `Cc1cc(F)cc(C)c1-c1c(F)c(C(CC(=O)O)NC(=O)[C@H](CC(C)C)n2cc(CCC3CCCN3C)c(C(F)(F)F)cc2=O)c(F)c2c1CCC2` (single isomer, unassigned) [Trifluoroacetate salt of compound 28-2], the IC50 on integrin α4β1 is over 100 nM.

In turn, `COc1cc(C)c(-c2c(F)c(C(CC(=O)O)NC(=O)C(CC(C)C)n3cc(CCN(C)C)c(C(F)(F)F)cc3=O)c(F)c3c2CCC3)c(C)c1` (stereo not shown) [Compound 21-A] returned an IC50 on integrin α4β1 of over 100 nM.

For the molecule `Cc1cc(F)cc(C)c1-c1c(F)c(C(CC(=O)O)NC(=O)[C@H](CC(C)C)n2cc(CC3CN(C(C)C)C3)c(C(F)(F)F)cc2=O)c(F)c2c1CCC2` (stereo partly shown) [Compound 32-2], the CL in data set [1] (IV: 1 mg/kg) was 20.2 mL/min/kg.

For `Cc1ccc2[nH]ncc2c1-c1c(F)c(C(CC(=O)O)NC(=O)[C@H](CC(C)C)n2cc(CCN(C)C)c(C(F)(F)F)cc2=O)c(F)c2c1CCC2` (stereo partly shown) [Compound 33-2], the IC50 on integrin α4β7 was under 0.5 nM. Further, at integrin α4β1, the IC50 is over 100 nM and the α4β1/α4β7 stood at 643.

With `[2H]C([2H])([2H])Oc1cc(C)c(-c2c(F)c([C@H](CC(=O)O)NC(=O)C(CC(C)C)n3cc(CCN4CCC4)c(C(F)(F)F)cc3=O)c(F)c3c2CCC3)c(C)c1` (stereo partly shown) [Compound 40-2], the IC50 at integrin α4β7 was under 0.5 nM. Moreover, at integrin α4β1, the IC50 is over 300 nM and the α4β1/α4β7 was 1143.

Turning to `Cc1cc(-c2c(C)cc(F)cc2C)cc([C@H](CC(=O)O)NC(=O)[C@H](CC(C)C)n2cc(CCN(C)C)c(C(F)(F)F)cc2=O)c1F` [Control compound A], the half-life at 1 μM in data set [2] is 35.7 min; in data set [3], 49.3 min; in data set [4] it was 10.6 min. For the same molecule, the CLint scaled at 1 μM in data set [2] (setting [5]) is 69.9 mL/min/kg; in data set [3] (setting [5]) it was 111 mL/min/kg; in data set [4] (setting [5]), 176 mL/min/kg. The figures for the microsomal CLint at 1 μM in data set [2] (setting [6]), in data set [3] (setting [6]) and in data set [4] (setting [6]) were 38.8 µL/min/mg, 28.1 µL/min/mg and 130 µL/min/mg, respectively. In addition, in data set [1] (PO: 10 mg/kg vs iv […] (footnote, control compound A)), the F came to 23.9%. The AUC in data set [1] (male, SD, rat, plasma, PO: 10 mg/kg (footnote, control compound A)) was found to be 900 ng·h/mL. For the same molecule, in data set [1] (male, SD, rat, plasma, iv 2.5 mg/kg (footnote, control compound A)), the clearance came out at 45.8 mL/min/kg.

For the molecule `Cc1cc(F)cc(C)c1-c1cc(C(CC(=O)O)NC(=O)C(CC(C)C)n2cc(CC3CCN(C(C)C)CC3)c(C(F)(F)F)cc2=O)cc2c1CCC2` (stereo not shown) [Trifluoroacetate salt of compound 22-2], the IC50 is under 0.5 nM at integrin α4β7 and over 100 nM against integrin α4β1.

In the case of `Cc1cc(F)cc(C)c1-c1c(F)c(C(CC(=O)O)NC(=O)C(CC(C)C)n2cc(CCC3CCN(C)C3)c(C(F)(F)F)cc2=O)c(F)c2c1CCC2` (stereo not shown) [Trifluoroacetate salt of compound 26-2], the IC50 on integrin α4β7 was under 1 nM; against integrin α4β1, over 100 nM.
